Assay results taken from patent publication US20130287700A1, “COMPOUNDS FOR THE DIAGNOSIS OF NEURODEGENERATIVE DISORDERS ON THE OLFACTORY EPITHELIUM” (KLINIKUM DARMSTADT GMBH, priority 2010, published 2013).
“Also recorded” adds a separate entry of the source.

tested on: Tau fibril; experiment: Staining of tissue sections with the dyes, fluorescence microscopy: Tau in hippocampus; assay type: binding, human; conditions: person, AD, DAPI filter
Procedure: (§1) Tissue samples were fixed in 10% buffered formalin solution and embedded in paraffin. Slices of 4 μm thickness were prepared using a microtome and mounted on a slide in a water bath. Deparaffinization was carried out according to the following steps:
(§2) Xylene 15 min, 100% ethanol 10 min, 96% ethanol 10 min, 70% ethanol 10 min and storage in water until staining.
(§3) Staining with dyes of this invention was subsequently performed according to the following procedure steps:
(§4) Dyes of the present invention were applied in 0.01-1% ethanolic or methanolic solution dropwise onto the tissue section (50-200 μL) and incubated in a moist, EtOH/MeOH saturated and light-protected chamber for 10 min.
(§5) In the case of poorly soluble substances, up to 10% DMSO were added and, if required, filtered through a syringe filter (0.45 μm pore size).
(§6) Samples were stained with dyes of the present invention as described in example 21 and subsequently investigated using a Zeiss Axioskop, ABO 100 Hg fluorescent lamp, camera: Leica DFC300FX. Depending on the respective dye used, either a FITC filter or a DAPI filter was utilized.

**Q.** Which “Structure stained by the dye” value does the source give for `CCN(CC)c1ccc2cc(-c3csc(NNC(=O)c4cccnc4)n3)c(=O)oc2c1` [BSc4007, N′-(4-(7-(diethylamino)-2-oxo-2H-chromen-3-yl)thiazol-2-yl)nicotinohydrazide] here?
**A.** Tau fibril

**Q.** For `O=C(NCc1cccc(F)c1)Nc1ccc2nonc2c1` [BSc4138, 1-(Benzo[c][1,2,5]oxadiazol-5-yl)-3-(3-fluorobenzyl)urea], which “Structure stained by the dye” value is on record?
**A.** Tau fibril

tested on: Aβ plaque; experiment: Staining of tissue sections with the dyes, fluorescence microscopy: Aβ deposits in brain/hippocampus; assay type: binding, human; conditions: hippocampus, AD+, DAPI filter
Procedure: as §1, §2, §3, §4, §5, §6

**Q.** Which “Structure stained by the dye” value does the source give for `O=C(NCc1cccc(F)c1)Nc1ccc2nonc2c1` [BSc4138, 1-(Benzo[c][1,2,5]oxadiazol-5-yl)-3-(3-fluorobenzyl)urea] here?
**A.** Aβ plaque

**Q.** `Cn1c2ccccc2c2cc(/C=N\Nc3ccc(-c4nc5ccccc5s4)cc3)ccc21` [BSc4342, (Z)-1-(4-(benzo[d]thiazol-2-yl)phenyl)-2-((9-methyl-9H-carbazol-3-yl)methylene)hydrazin] was tested. Which “Structure stained by the dye” value did it give?
**A.** Aβ plaque

**Q.** Which “Structure stained by the dye” value does the source give for `C(=C\c1cccc2ccccc12)/c1cc(/C=C/c2cccc3ccccc23)ncn1` [BSc4328, 4,6-Bis((E)-2-(naphthalene-1-yl)vinyl)pyrimidine] here?
**A.** Aβ plaque

**Q.** With `C(=N/Nc1ccc(-c2nc3ccccc3s2)cc1)/c1cccnc1` [BSc4337, (Z)-1-(4-(benzo[d]thiazol-2-yl)phenyl)-2-((pyridine-3-yl)methylene)hydrazine] as the compound, how does the “Structure stained by the dye” value read?
**A.** Aβ plaque

**Q.** With `CN(C)c1ccc(/C=C/c2cc(/C=C/c3ccc(N(C)C)cc3)ncn2)cc1` [BSc4090, 4-((1E)-2-(6-(4-(dimethylamino)styryl)pyrimidine-4-yl)vinyl)-N,N-dimethylbenzenamine] as the compound, how does the “Structure stained by the dye” value read?
**A.** Aβ plaque

**Q.** With `CSc1nc(/C=C/c2ccc(N(C)C)cc2)cc(/C=C/c2ccc(N(C)C)cc2)n1` [BSc4097, 4,4′-(1E,1′E)-2,2′-(2-(methylthio)pyrimidine-4,6-diyl)bis(ethene-2,1-diyl)bis(N,N-dimethylaniline)] as the compound, how does the “Structure stained by the dye” value read?
**A.** Aβ plaque

**Q.** Which “Structure stained by the dye” value does the source give for `CN(C)c1ccc(/C=C/c2cnc(/C=C/c3ccc(N(C)C)cc3)cn2)cc1` [BSc4352, 4,4′-(1E,1′E)-2,2′-(pyrazine-2,5-diyl)bis(ethene-2,1-diyl)bis(N,N-dimethylaniline)] here?
**A.** Aβ plaque

same assay, conditions: hippocampus, AD+, FITC filter

**Q.** With `Cn1cccc1/C=C/c1cnc(/C=C/c2cccn2C)cn1` [BSc4353, 2,5-Bis((E)-2-(1-methyl-1H-pyrrol-2-yl)vinyl)pyrazine] as the compound, how does the “Structure stained by the dye” value read?
**A.** Aβ in angiopathy; also recorded: Aβ plaque

**Q.** Which “Structure stained by the dye” value does the source give for `Cn1cccc1/C=C/c1cc(/C=C/c2cccn2C)ncn1` [BSc4327, 4,6-Bis((E)-2-(1-methyl-1H-pyrrol-2-yl)vinyl)pyrimidine] here?
**A.** Aβ in angiopathy

**Q.** For `COc1ccc(/C=C/c2cnc(/C=C/c3ccc(OC)cc3)cn2)cc1` [BSc4354, 2,5-Bis(4-methoxystyryl)pyrazine], which “Structure stained by the dye” value is on record?
**A.** Aβ in angiopathy; also recorded: Aβ plaque

**Q.** How did the “Structure stained by the dye” value turn out when `CN(C)c1ccc(/C=C/c2cc(/C=C/c3ccc(N(C)C)cc3)ncn2)cc1` [BSc4090, 4-((1E)-2-(6-(4-(dimethylamino)styryl)pyrimidine-4-yl)vinyl)-N,N-dimethylbenzenamine] was run?
**A.** Aβ plaque
